The source of these data is patent US20210153516A1, “COMPOSITION AND METHOD OF TREATING PLANTS AND PLANT PARTS WITH VOLATILE SPOILAGE ORGANISM CONTROLLING ACTIVES” (AGROFRESH INC., priority 2019, published 2021).

The subject of test [1] is B. cinerea (Botrytis cinerea or Gray mold). Kind of test: B. cinerea infection assessment for blueberries after thermal fogging (Example 3). Conditions: untreated blueberries placed adjacent to treated blueberries one day after treatment, 10 mg active ingredient per kg. In kind it is in vivo. Here is the method:
(§1) The experiment was conducted by 1) setting up a 4.3 m^3 rectangular plastic tent, 2) placing blueberries in open clamshells in the tent, 3) preparing a foggable formulation by dissolving volatile compound into a solvent mixture containing 50% w/w propylene glycol, 47.8% w/w isopropyl alcohol, 2% w/w sorbitan mono-oleate, and 0.2% of citric acid to achieve about 10% w/w volatile compound, 4) inoculating the blueberries before treatment, 5) applying the formulation through a thermal fogger with set temperature at 200° C. and flow rate of about 70 ml/min, and target use rate of 10 mg active ingredient per kg of blueberries, and 6) storing the blueberries under refrigerated condition of about 4° C. after treatment, and at room temperature to incubate for observation of disease infections.
B. cinerea (Botrytis cinerea or Gray mold) infection was assessed at 4 and 13 days incubation time for both untreated blueberries in isolation and untreated blueberries placed adjacent to the treated blueberries one day after the treatment.

Test [2] relates to Penicillium digitatum (Green mold) and Penicillium italicum (Blue mold). Nature of the test: Green mold and Blue mold infection assessment for mandarins after spray treatment. In kind it is in vivo. Conditions: equally mixed mandarins of untreated and treated (spray 60 ml treatment solution per box); 10 days incubation at room temperature. The procedure:
The experiment was conducted by 1) preparing a spray treatment solution by diluting […] concentrated formulation containing 10% w/w volatile compound, 45% w/w propylene glycol, 43.02% w/w isopropanol, 1.8% w/w sorbitan mono-oleate, 0.18% w/w citric acid into 1 L water, 2) spraying a box of mandarins with the use rate of 60 ml treatment solution per box, 3) after air drying of the mandarins, preparing a box of mandarins containing 50% untreated mandarins and 50% treated mandarins, 4) storing the mandarins under 3-5° C. refrigerated conditions for 7 days, and then storing at room temperature with high humidity to incubate for disease observations. Penicillium Digitatum (Green mold) and Penicillium italicum (Blue mold) infection incidence of the mandarins was assessed at 10 days incubation time under room temperature shelf life conditions for both untreated mandarins in isolation and equally mixed untreated and treated mandarins to simulate uneven spray treatment applications.

Test [3] deals with B. cinerea. Nature of the test: B. cinerea infection assessment for blueberries after thermal fogging (Example 4). In kind it is in vivo, Botrytis cinerea. Here is the method: as §1
B. cinerea infection was assessed at 13, 16, and 24 days incubation time under room temperature shelf life conditions for both untreated blueberry in isolation, untreated blueberry placed adjacent to the treated blueberry six days after the treatment, and the treated blueberries.

Test [4] relates to Penicillium digitatum (Green mold) and Penicillium italicum (Blue mold). Kind of test: Green mold and Blue mold infection assessment for mandarins after dipping treatment. It counts as in vivo. Conditions: equally mixed mandarins of untreated and treated (dip about 60 seconds); 10 days incubation at room temperature. The procedure:
The experiment was conducted by 1) preparing a dipping treatment solution by diluting 360 ml concentrated formulation containing 10% w/w volatile compound, 45% w/w propylene glycol, 43.02% w/w isopropanol, 1.8% w/w sorbitan mono-oleate, 0.18% w/w citric acid into 60 L water, 2) dipping a box of mandarins into the treatment solution bath for about 60 seconds, 3) after air drying of the mandarins, preparing a box of mandarins containing 50% untreated mandarins and 50% treated mandarins, 4) storing the mandarins under 3-5° C. refrigerated conditions for 7 days, and then storing at room temperature with high humidity to incubate for disease observations. Penicillium digitatum (Green mold) and Penicillium italicum (Blue mold) infection incidence of the mandarins was assessed at 10 days incubation time under room temperature shelf life conditions for both untreated mandarins in isolation and equally mixed untreated and treated mandarins to simulate uneven drench or dip treatment applications.

Test [5] has as its system B. cinerea. Kind of test: B. cinerea infection assessment for strawberries after dipping treatment. It counts as in vivo, Botrytis cinerea. Here is the method: The experiment was conducted by 1) preparing a dipping treatment solution by dissolving volatile compound into 20% v/v isopropanol water solution to achieve 10 ppm concentration, 2) pre-inoculate all the strawberries before treatment, 3) dipping strawberries in the prepared solution for 30 seconds, 4) storing the strawberries under refrigerated conditions and at room temperature to incubate for disease observations. B. cinerea infection was assessed at 3 and 5 days incubation time for both untreated strawberries in isolation and untreated strawberries placed adjacent to the treated strawberries.

The mark [6] stands for this setting: treated blueberries, thermal fogging 10 mg active ingredient per kg, 13 days incubation.
[7] abbreviates: treated blueberries, thermal fogging 10 mg active ingredient per kg, 16 days incubation.
Setting [8] is: treated blueberries, thermal fogging 10 mg active ingredient per kg, 24 days incubation.
[9] abbreviates: untreated blueberries placed adjacent to treated blueberries 6 days after treatment, 13 days incubation.
The mark [10] stands for this setting: untreated blueberries placed adjacent to treated blueberries 6 days after treatment, 16 days incubation.
Setting [11] is: untreated blueberries placed adjacent to treated blueberries 6 days after treatment, 24 days incubation.

Take `OB1OCc2cc(F)ccc21` [5-fluoro-1-hydroxy-3H-2,1-benzoxaborole]: the B. cinerea incidence in test [1] (4 days incubation) was found to be 2.6%; in test [1] (13 days incubation), 19.2%; in test [3] (setting [6]) it was 2.8%; in test [3] (setting [7]) it was 2.8%; in test [3] (setting [8]) it was 5.6%; in test [3] (setting [9]), 16.7%. For the same compound, the values for the B. cinerea incidence in test [3] (setting [10]) and in test [3] (setting [11]) were 23.0% and 33.3%, respectively. Moreover, the B. cinerea severity came out at 0.2% in test [1] (4 days incubation); 10.6% in test [1] (13 days incubation); 1.1% in test [3] (setting [6]); 1.1% in test [3] (setting [7]); 3.3% in test [3] (setting [8]); 4.7% in test [3] (setting [9]). Also, the B. cinerea severity amounted to 6.2% in test [3] (setting [10]); 15.0% in test [3] (setting [11]); 0.0% in test [5] (treated strawberries, dipped 30 seconds in 10 ppm solution, 3 days incubation); 0.0% in test [5] (treated strawberries, dipped 30 seconds in 10 ppm solution, 5 days incubation); 5.4% in test [5] (untreated strawberries placed adjacent to treated strawberries, 3 days incubation); 43.8% in test [5] (untreated strawberries placed adjacent to treated strawberries, 5 days incubation). In addition, the “Green and Gray molds incidence” value in test [2] is 0.64%. Also, in test [4], the “Green and Blue mold incidence” value is reported as 4.1%.
